Test results from the NIST ThermoML archive (doi:10.1016/j.tca.2015.01.022).
Numbers after ± are expanded uncertainties.

Test: molar heat capacity at constant pressure
Details: 101.33 kPa, Small (less than 1 g) adiabatic calorimetry

CCCCCCCC[n+]1ccn(C)c1.F[B-](F)(F)F [1-methyl-3-octylimidazolium tetrafluoroborate]
Details	molar heat capacity at constant pressure [J/K/mol]
148.21 K, Glass	270.7 ± 1.4
149.81 K, Crystal	251.1 ± 1.3
150 K, Crystal	251.3 ± 1.3
150 K, Glass	273.5 ± 1.4
150.08 K, Crystal	251.3 ± 1.3
150.11 K, Glass	273.6 ± 1.4
151.75 K, Crystal	253.4 ± 1.3
152 K, Glass	276.6 ± 1.4
152.02 K, Crystal	253.6 ± 1.3
153.69 K, Crystal	255.7 ± 1.3
153.91 K, Glass	279.6 ± 1.5
153.96 K, Crystal	255.9 ± 1.3
155.63 K, Crystal	258 ± 1.4
155.81 K, Glass	282.6 ± 1.5
155.9 K, Crystal	258.3 ± 1.4
157.57 K, Crystal	260.3 ± 1.4
157.72 K, Glass	285.4 ± 1.5
157.84 K, Crystal	260.6 ± 1.4
159.5 K, Crystal	262.7 ± 1.4
159.62 K, Glass	288.5 ± 1.5
159.77 K, Crystal	263 ± 1.4
160 K, Crystal	263.2 ± 1.4
160 K, Glass	289.3 ± 1.5
161.44 K, Crystal	265.2 ± 1.4
161.53 K, Glass	291.6 ± 1.5
161.71 K, Crystal	265.3 ± 1.4
162.37 K, Glass	293 ± 1.5
163.37 K, Crystal	267.5 ± 1.4
163.44 K, Glass	294.7 ± 1.5
163.64 K, Crystal	267.7 ± 1.4
164.32 K, Glass	296.1 ± 1.5
165.31 K, Crystal	270 ± 1.4
165.35 K, Glass	297.8 ± 1.5
165.57 K, Crystal	270.2 ± 1.4
166.17 K, Glass	299.2 ± 1.6
167.24 K, Crystal	272.5 ± 1.4
167.26 K, Glass	301.2 ± 1.6
167.5 K, Crystal	272.7 ± 1.4
168.01 K, Glass	302.3 ± 1.6
169.16 K, Crystal	275 ± 1.4
169.17 K, Glass	304.3 ± 1.6
169.43 K, Crystal	275.2 ± 1.4
169.85 K, Glass	305.4 ± 1.6
170 K, Crystal	276 ± 1.4
170 K, Glass	305.6 ± 1.6
171.09 K, Crystal	277.5 ± 1.4
171.09 K, Glass	307.7 ± 1.6
171.36 K, Crystal	277.7 ± 1.4
171.68 K, Glass	308.8 ± 1.6
173 K, Glass	311.1 ± 1.6
173.01 K, Crystal	280.1 ± 1.5
173.28 K, Crystal	280.3 ± 1.5
173.52 K, Glass	311.9 ± 1.6
174.93 K, Crystal	282.6 ± 1.5
174.93 K, Glass	314.5 ± 1.6
175.2 K, Crystal	282.9 ± 1.5
175.35 K, Glass	315.3 ± 1.6
176.85 K, Crystal	285.4 ± 1.5
176.85 K, Glass	318.4 ± 1.6
177.12 K, Crystal	285.7 ± 1.5
177.17 K, Glass	319.3 ± 1.7
178.76 K, Crystal	288.3 ± 1.5
178.77 K, Glass	322.6 ± 1.7
179 K, Glass	322.9 ± 1.7
179.03 K, Crystal	288.3 ± 1.5
180 K, Crystal	290 ± 1.5
180 K, Glass	325.4 ± 1.7
180.67 K, Crystal	291.1 ± 1.5
180.7 K, Glass	327.1 ± 1.7
180.82 K, Glass	327.4 ± 1.7
180.94 K, Crystal	291.4 ± 1.5
182.58 K, Crystal	293.9 ± 1.5
182.63 K, Glass	332.5 ± 1.7
182.85 K, Crystal	294.2 ± 1.5
184.43 K, Glass	338.1 ± 1.7
184.48 K, Crystal	296.7 ± 1.5
184.56 K, Glass	339 ± 1.7
184.75 K, Crystal	297 ± 1.5
186.22 K, Glass	345.5 ± 1.8
186.38 K, Crystal	299.8 ± 1.6
186.48 K, Glass	348 ± 1.8
186.65 K, Crystal	299.8 ± 1.6
187.99 K, Glass	355.9 ± 1.8
188.27 K, Crystal	302.6 ± 1.6
188.39 K, Glass	361.5 ± 1.9
188.55 K, Crystal	302.6 ± 1.6
189.72 K, Glass	373.1 ± 1.9
190 K, Crystal	305 ± 1.6
190 K, Glass	380.4 ± 1.9
190.16 K, Crystal	305.4 ± 1.6
190.27 K, Liquid	387.4 ± 2
190.44 K, Crystal	305.4 ± 1.6
191.35 K, Liquid	408.9 ± 2.1
192.04 K, Crystal	308.3 ± 1.6
192.05 K, Liquid	444.4 ± 2.3
192.32 K, Crystal	308.5 ± 1.6
192.85 K, Liquid	463.5 ± 2.4
193.84 K, Liquid	466.1 ± 2.4
193.92 K, Crystal	311.4 ± 1.6
194.2 K, Crystal	311.6 ± 1.6
194.36 K, Liquid	466.3 ± 2.4
195.76 K, Liquid	466.6 ± 2.4
195.8 K, Crystal	314.5 ± 1.6
196.08 K, Crystal	314.7 ± 1.6
197.67 K, Crystal	317.3 ± 1.6
197.7 K, Liquid	465.8 ± 2.4
197.95 K, Crystal	317.8 ± 1.6
199.54 K, Crystal	320.7 ± 1.7
199.64 K, Liquid	464.9 ± 2.4
199.82 K, Crystal	320.9 ± 1.7
200 K, Crystal	320 ± 1.7
200 K, Liquid	464.9 ± 2.4
201.46 K, Crystal	323.8 ± 1.7
201.58 K, Liquid	464.7 ± 2.4
201.81 K, Crystal	324.6 ± 1.7
203.44 K, Crystal	327.4 ± 1.7
203.53 K, Liquid	464.1 ± 2.4
203.91 K, Crystal	328.6 ± 1.7
205.42 K, Crystal	331.1 ± 1.7
205.47 K, Liquid	463.8 ± 2.4
206.02 K, Crystal	332.2 ± 1.7
207.4 K, Crystal	334.5 ± 1.7
207.42 K, Liquid	463.5 ± 2.4
208.11 K, Crystal	335.9 ± 1.7
209.36 K, Liquid	463.5 ± 2.4
209.37 K, Crystal	338.1 ± 1.7
210 K, Crystal	335 ± 1.7
210 K, Liquid	463.4 ± 2.4
210.2 K, Crystal	339.8 ± 1.8
211.3 K, Liquid	463.2 ± 2.4
211.34 K, Crystal	342.1 ± 1.8
212.28 K, Crystal	344.3 ± 1.8
213.25 K, Liquid	463.5 ± 2.4
213.29 K, Crystal	346 ± 1.8
214.36 K, Crystal	348 ± 1.8
